Reference: ChEMBL document CHEMBL2412957, “Synthesis and SAR of 4-aminocyclopentapyrrolidines as orally active N-type calcium channel inhibitors for inflammatory and neuropathic pain” (Bioorg Med Chem Lett, 2013)
≈ marks a conversion by molar mass, not a printed value.

How the values were obtained:
[1] = molecular target: Voltage-gated inwardly rectifying potassium channel KCNH2 (Homo sapiens, UniProt Q12809); experiment: Inhibition of dofetilide binding to human ERG
[2] = Metabolic stability in rat liver microsomes assessed as compound remaining after 30 mins; format: ADME, Microsome; settings: read-out: Stability
[3] = Metabolic stability in human liver microsomes assessed as compound remaining after 30 mins; format: ADME, Microsome; settings: read-out: Stability
[4] = Solubility of the compound by chemiluminescent nitrogen detection method
[5] = molecular target: Voltage-dependent N-type calcium channel subunit alpha-1B (Homo sapiens, UniProt Q00975); experiment: Inhibition of N-type Cav2.2 channel (unknown origin) by FLIPR assay
Rattus norvegicus [6] = species: Rattus norvegicus; experiment: Analgesic activity in rat chronic constriction injury-induced neuropathic pain model; format: functional
Rattus norvegicus [7] = species: Rattus norvegicus; experiment: Analgesic activity in rat monoiodoaceate-induced osteoarthritis pain model; format: functional
[8] = molecular target: T1, Voltage-dependent N-type calcium channel subunit alpha-1B (Rattus norvegicus, UniProt Q02294); experiment: Inhibition of rat N-type Cav2.2 channel expressed in HEK293 cells under hyperpolarized condition by whole cell patch-clamp manual electrophysiology assay; format: cell-based
[9] = molecular target: T1, Voltage-dependent N-type calcium channel subunit alpha-1B; experiment: Inhibition of rat N-type Cav2.2 channel expressed in HEK293 cells under depolarized condition by whole cell patch-clamp manual electrophysiology assay; format: cell-based
[10] = Oral bioavailability in rat at 5 umol/kg; format: ADME, organism-based; settings: in vivo
[11] = AUC in rat at 5 umol/kg, po; format: ADME, organism-based; settings: plasma
[12] = Ratio of drug level brain to plasma in rat at 3 umol/kg, ip after 30 mins; format: ADME, organism-based; settings: read-out: BPR
[13] = Plasma clearance in rat at 5 umol/kg, iv and 5 umol/kg, po; format: ADME, organism-based
[14] = Half life in rat at 5 umol/kg, iv and 5 umol/kg, po; format: ADME, organism-based; settings: in vivo
[15] = Volume of distribution at steady state in rat at 5 umol/kg, iv and 5 umol/kg, po; format: ADME, organism-based; settings: in vivo, read-out: Vdss
[16] = (§1) Plasma clearance in rat at 5 umol/kg, iv and 30 umol/kg, po; format: ADME, organism-based; settings: plasma
[17] = (§2) Oral bioavailability in rat at 30 umol/kg; format: ADME, organism-based; settings: in vivo, 30 umol/kg
[18] = Volume of distribution at steady state in rat at 5 umol/kg, iv and 30 umol/kg, po; format: ADME, organism-based; settings: in vivo, read-out: Vdss
[19] = Half life in rat at 5 umol/kg, iv and 30 umol/kg, po; format: ADME, organism-based; settings: in vivo
[20] = (§3) AUC in rat at 30 umol/kg, po; format: ADME, organism-based, Plasma; settings: plasma, 30 umol/kg
[21] = molecular target: Voltage-gated L-type calcium channel (Rattus norvegicus, UniProt P22002+Q02485+P27732); experiment: Inhibition of L-type calcium channel in rat aorta ring tissue assessed as relaxation of tissue; format: tissue-based
Rattus norvegicus [22] = experiment: Cardiotoxicity in anesthetized rat assessed as decrease in mean arterial pressure at plasma concentration of 1.57 ug/mL; format: toxicity, organism-based
Rattus norvegicus [23] = species: Rattus norvegicus; experiment: Analgesic activity in rat capsaicin secondary mechanical hyperalgesia pain model; format: functional
[24] = Ratio of drug level brain to plasma in po dosed rat after 60 mins; format: ADME, organism-based; settings: read-out: BPR
Rattus norvegicus [25] = experiment: as §3; format: ADME, organism-based, Plasma; settings: in vivo
Rattus norvegicus [26] = experiment: as §1; format: ADME, organism-based; settings: in vivo
Rattus norvegicus [27] = experiment: as §2; format: ADME, organism-based; settings: in vivo, at 30 µmol/kg

T1 sequence (Q02294 whole entry): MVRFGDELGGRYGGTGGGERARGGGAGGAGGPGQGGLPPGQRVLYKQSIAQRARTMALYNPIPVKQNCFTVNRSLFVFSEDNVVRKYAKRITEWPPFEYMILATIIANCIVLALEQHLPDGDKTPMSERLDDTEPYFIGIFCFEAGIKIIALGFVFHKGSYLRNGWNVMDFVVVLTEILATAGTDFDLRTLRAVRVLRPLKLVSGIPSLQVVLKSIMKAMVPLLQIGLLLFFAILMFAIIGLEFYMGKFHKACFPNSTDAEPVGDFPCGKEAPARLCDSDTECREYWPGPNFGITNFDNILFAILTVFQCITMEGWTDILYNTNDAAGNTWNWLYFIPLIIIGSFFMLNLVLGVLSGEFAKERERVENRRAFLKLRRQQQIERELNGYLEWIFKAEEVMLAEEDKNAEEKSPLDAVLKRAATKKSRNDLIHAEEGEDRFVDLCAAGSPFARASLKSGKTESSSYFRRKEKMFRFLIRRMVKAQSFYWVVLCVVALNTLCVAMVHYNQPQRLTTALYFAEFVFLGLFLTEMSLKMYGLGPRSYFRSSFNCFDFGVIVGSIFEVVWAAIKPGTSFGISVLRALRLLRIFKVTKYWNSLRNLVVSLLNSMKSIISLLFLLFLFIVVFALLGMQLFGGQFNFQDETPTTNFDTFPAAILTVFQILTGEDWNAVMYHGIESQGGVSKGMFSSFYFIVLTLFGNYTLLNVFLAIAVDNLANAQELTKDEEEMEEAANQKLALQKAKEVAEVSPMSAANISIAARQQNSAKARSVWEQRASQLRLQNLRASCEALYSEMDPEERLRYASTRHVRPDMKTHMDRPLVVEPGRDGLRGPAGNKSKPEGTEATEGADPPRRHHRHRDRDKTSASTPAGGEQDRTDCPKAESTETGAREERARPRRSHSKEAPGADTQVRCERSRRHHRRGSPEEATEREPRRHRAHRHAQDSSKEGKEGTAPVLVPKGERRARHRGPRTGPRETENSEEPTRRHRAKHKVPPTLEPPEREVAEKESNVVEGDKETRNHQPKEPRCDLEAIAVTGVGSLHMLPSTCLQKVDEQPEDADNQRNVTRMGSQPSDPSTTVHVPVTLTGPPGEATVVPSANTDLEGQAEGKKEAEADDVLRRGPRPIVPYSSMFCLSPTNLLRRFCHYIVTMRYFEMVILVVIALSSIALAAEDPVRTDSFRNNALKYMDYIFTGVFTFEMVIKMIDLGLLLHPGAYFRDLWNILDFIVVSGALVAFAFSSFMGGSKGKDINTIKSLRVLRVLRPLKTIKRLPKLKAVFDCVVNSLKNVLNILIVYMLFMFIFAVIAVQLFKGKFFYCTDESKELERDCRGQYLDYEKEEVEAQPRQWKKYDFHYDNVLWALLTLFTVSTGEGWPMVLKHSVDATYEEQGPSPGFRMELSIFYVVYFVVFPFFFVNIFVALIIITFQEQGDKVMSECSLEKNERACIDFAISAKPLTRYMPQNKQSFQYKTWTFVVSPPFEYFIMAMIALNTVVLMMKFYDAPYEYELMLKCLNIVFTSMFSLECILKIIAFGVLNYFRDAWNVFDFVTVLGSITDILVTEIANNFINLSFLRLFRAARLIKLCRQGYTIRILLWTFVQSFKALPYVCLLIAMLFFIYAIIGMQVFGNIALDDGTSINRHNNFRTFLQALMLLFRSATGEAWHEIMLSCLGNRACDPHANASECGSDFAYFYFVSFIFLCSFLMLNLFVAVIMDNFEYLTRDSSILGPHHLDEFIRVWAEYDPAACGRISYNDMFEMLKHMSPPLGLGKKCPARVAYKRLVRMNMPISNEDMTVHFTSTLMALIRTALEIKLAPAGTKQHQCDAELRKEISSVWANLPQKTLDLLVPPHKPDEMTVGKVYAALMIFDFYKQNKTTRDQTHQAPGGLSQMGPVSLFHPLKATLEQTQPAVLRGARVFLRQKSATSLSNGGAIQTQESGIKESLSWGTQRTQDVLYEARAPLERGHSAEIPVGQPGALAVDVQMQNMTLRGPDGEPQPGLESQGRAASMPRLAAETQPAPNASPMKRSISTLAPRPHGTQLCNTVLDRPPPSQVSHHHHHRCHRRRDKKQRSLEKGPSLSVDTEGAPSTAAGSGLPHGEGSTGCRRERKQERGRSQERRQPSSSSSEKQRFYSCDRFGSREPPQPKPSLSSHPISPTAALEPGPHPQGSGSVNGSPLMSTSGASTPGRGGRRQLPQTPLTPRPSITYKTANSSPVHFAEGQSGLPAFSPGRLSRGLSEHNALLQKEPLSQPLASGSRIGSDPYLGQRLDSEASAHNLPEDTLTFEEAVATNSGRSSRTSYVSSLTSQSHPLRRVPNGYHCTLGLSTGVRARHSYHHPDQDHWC
Chain of Voltage-dependent N-type calcium channel subunit alpha-1B (Homo sapiens, UniProt Q00975) (Q00975 whole entry): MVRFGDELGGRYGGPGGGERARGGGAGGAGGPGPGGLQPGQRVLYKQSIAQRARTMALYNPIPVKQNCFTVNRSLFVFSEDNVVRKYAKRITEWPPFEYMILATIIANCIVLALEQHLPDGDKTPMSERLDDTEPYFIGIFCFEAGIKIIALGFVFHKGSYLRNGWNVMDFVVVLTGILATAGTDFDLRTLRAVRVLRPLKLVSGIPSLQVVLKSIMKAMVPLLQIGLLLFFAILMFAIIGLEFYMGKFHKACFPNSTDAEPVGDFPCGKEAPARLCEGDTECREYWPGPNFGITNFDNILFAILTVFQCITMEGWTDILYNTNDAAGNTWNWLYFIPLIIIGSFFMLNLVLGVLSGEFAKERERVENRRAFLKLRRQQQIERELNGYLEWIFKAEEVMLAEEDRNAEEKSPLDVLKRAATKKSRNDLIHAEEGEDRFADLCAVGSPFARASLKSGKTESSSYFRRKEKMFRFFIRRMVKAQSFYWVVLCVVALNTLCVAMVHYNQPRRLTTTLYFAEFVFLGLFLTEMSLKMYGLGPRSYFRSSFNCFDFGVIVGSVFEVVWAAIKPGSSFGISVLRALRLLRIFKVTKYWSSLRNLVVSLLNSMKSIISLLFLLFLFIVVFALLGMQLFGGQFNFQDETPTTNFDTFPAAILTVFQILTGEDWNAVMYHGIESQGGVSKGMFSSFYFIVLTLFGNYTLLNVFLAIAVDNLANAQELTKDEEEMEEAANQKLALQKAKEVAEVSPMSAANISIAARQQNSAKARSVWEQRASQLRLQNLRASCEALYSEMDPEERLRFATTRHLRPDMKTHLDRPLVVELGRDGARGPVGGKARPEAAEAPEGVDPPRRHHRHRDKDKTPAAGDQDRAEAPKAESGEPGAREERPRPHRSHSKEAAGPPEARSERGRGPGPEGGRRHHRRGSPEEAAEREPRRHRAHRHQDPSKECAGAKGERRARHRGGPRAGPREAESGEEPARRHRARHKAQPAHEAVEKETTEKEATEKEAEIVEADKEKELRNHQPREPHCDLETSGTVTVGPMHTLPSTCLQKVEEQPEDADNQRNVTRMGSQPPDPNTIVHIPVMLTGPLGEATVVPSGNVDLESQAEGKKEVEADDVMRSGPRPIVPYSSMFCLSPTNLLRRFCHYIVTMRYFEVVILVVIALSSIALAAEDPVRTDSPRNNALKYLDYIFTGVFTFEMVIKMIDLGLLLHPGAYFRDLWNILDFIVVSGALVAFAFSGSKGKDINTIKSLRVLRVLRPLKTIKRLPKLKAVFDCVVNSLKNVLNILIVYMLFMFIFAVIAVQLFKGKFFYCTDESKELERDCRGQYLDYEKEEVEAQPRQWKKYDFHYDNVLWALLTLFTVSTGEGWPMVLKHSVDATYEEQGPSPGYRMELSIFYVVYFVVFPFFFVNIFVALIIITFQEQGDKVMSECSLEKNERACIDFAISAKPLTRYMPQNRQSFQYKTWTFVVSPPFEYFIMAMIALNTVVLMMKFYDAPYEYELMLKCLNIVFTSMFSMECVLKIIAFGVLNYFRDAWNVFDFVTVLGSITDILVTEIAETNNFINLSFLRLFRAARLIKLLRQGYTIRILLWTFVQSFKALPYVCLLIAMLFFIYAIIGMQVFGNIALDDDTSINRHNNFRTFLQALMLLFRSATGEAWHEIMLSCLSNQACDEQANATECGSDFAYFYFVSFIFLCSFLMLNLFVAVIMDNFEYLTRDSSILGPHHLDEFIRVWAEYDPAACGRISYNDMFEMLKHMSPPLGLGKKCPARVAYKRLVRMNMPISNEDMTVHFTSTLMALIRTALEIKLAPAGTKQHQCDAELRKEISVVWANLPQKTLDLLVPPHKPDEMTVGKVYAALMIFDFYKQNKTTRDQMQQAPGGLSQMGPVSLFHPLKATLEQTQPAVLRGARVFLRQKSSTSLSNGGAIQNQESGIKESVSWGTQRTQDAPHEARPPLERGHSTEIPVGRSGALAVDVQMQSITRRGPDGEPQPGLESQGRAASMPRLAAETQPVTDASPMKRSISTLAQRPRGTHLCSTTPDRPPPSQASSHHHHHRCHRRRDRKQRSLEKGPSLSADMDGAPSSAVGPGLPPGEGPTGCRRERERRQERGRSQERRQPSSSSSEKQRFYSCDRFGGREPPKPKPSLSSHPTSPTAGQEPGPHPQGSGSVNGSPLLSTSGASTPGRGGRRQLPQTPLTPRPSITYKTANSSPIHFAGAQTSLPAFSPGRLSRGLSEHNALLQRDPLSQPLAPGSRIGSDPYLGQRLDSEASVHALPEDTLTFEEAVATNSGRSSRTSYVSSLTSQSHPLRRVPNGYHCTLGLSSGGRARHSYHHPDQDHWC

remaining at 0.5 h [2] [%]	remaining at 0.5 h [3] [%]	solubility [4] [µM]	IC50 ([5]; read-out: IC50) [nM]	IC50 ([5]; read-out: pIC50 (converted)) [nM]	SMILES	other results
0.1	0.5	< 3			O=C(N[C@H]1CC[C@H]2CN(Cc3cccc(C(F)(F)F)c3)C[C@H]21)C(C1CCCCC1)C1CCCCC1	Ki [1]: 690 nM
89.2	22.8	20 (≈ 9.79 µg/mL)	490	575	CCN[C@@H](CC(C)(C)C)C(=O)N[C@H]1CC[C@@H]2CN(S(=O)(=O)c3ccc(C(F)(F)F)cc3)C[C@@H]21	
81	73	56 (≈ 22.3 µg/mL)		1170	CN[C@@H](CC(C)C)C(=O)N[C@H]1CC[C@@H]2CN(c3cccc(C(F)(F)F)c3)C[C@@H]21	
> 85	> 85	33 (≈ 13.1 µg/mL)	1240		CN[C@@H](CC(C)C)C(=O)N[C@H]1CC[C@@H]2CN(c3ccc(C(F)(F)F)cc3)C[C@@H]21	ED50 (Rattus norvegicus [6]): 10 mg/kg; ED50 (Rattus norvegicus [7]): 3 mg/kg; IC50 [8]: 4400 nM; IC50 [9]: 1000 nM; bioavailability [10]: 83%; AUC [11]: 799 ng·h/mL; Kp at 0.5 h [12]: 16.5; clearance [13]: 21.7 mL/min/kg; half-life [14]: 15.4 h; Vd [15]: 26.5 L/kg
66	> 85	31 (≈ 12.8 µg/mL)	5150		CN[C@@H](CC(C)C)C(=O)N[C@H]1CC[C@@H]2CN(c3ccc(OC(F)(F)F)cc3)C[C@@H]21	
2.6	1.2	< 3	1870		O=C(N[C@@H]1CC[C@H]2CN(Cc3cccc(C(F)(F)F)c3)C[C@H]21)C(C1CCCCC1)C1CCCCC1	Ki [1]: 9520 nM
60.7	19.4	67 (≈ 27.6 µg/mL)	1890		CN[C@@H](CC(C)C)C(=O)N[C@@H]1CC[C@H]2CN(Cc3cccc(C(F)(F)F)c3)C[C@H]21	
42.1	23.6	80 (≈ 38 µg/mL)	2840		CC(C)C[C@H](NS(C)(=O)=O)C(=O)N[C@@H]1CC[C@H]2CN(Cc3cccc(C(F)(F)F)c3)C[C@H]21	
10.3	45	44 (≈ 19.7 µg/mL)	1060		CC(C)C[C@H](N)C(=O)N[C@@H]1CC[C@H]2CN(S(=O)(=O)c3cccc(C(F)(F)F)c3)C[C@H]21	clearance [16]: 568 mL/min/kg; bioavailability [17]: 0%; Vd [18]: 15 L/kg; half-life [19]: 0.5 h
26.5	25.5	75 (≈ 34.6 µg/mL)	520	631	CN[C@@H](CC(C)C)C(=O)N[C@@H]1CC[C@H]2CN(S(=O)(=O)c3cccc(C(F)(F)F)c3)C[C@H]21	AUC [20]: 405 ng·h/mL; clearance [16]: 60 mL/min/kg; bioavailability [17]: 10.5%; Vd [18]: 9.2 L/kg; half-life [19]: 2 h
47.3	50.5	27 (≈ 12.5 µg/mL)	770	851	CN[C@@H](CC(C)C)C(=O)N[C@@H]1CC[C@H]2CN(S(=O)(=O)c3ccc(C(F)(F)F)cc3)C[C@H]21	bioavailability [10]: 21%; AUC [11]: 221 ng·h/mL; clearance [13]: 36.7 mL/min/kg; half-life [14]: 2.1 h; Vd [15]: 5.6 L/kg
1	0.1	79 (≈ 37.6 µg/mL)	450		CC(C)C[C@@H](C(=O)N[C@@H]1CC[C@H]2CN(S(=O)(=O)c3cccc(C(F)(F)F)c3)C[C@H]21)N(C)C	AUC [20]: 35 ng·h/mL; clearance [16]: 56.7 mL/min/kg; bioavailability [17]: 0.8%; Vd [18]: 5.2 L/kg; half-life [19]: 1.4 h
69.9	54.4	77 (≈ 35.5 µg/mL)	750	851	CN[C@@H](CC(C)C)C(=O)N[C@H]1CC[C@@H]2CN(S(=O)(=O)c3ccc(C(F)(F)F)cc3)C[C@@H]21	bioavailability [10]: 50%; AUC [11]: 422 ng·h/mL; clearance [13]: 46.7 mL/min/kg; half-life [14]: 3.3 h; Vd [15]: 13.2 L/kg
83.4	74.6	97 (≈ 43.4 µg/mL)	960		CCC[C@H](NC)C(=O)N[C@H]1CC[C@@H]2CN(S(=O)(=O)c3ccc(C(F)(F)F)cc3)C[C@@H]21	
66.4	51.1	38 (≈ 17.5 µg/mL)	750		CCCC[C@H](NC)C(=O)N[C@H]1CC[C@@H]2CN(S(=O)(=O)c3ccc(C(F)(F)F)cc3)C[C@@H]21	
77.1	75.6	94 (≈ 42.1 µg/mL)	1510		CC(C)(C)[C@H](N)C(=O)N[C@H]1CC[C@@H]2CN(S(=O)(=O)c3ccc(C(F)(F)F)cc3)C[C@@H]21	
79.4	41.8	68 (≈ 31.4 µg/mL)	870	933	CC(C)(C)C[C@H](N)C(=O)N[C@H]1CC[C@@H]2CN(S(=O)(=O)c3ccc(C(F)(F)F)cc3)C[C@@H]21	
66.5	33.6	76 (≈ 36.1 µg/mL)	790	832	CN[C@@H](CC(C)(C)C)C(=O)N[C@H]1CC[C@@H]2CN(S(=O)(=O)c3ccc(C(F)(F)F)cc3)C[C@@H]21	
26.2	26.8		860		CN[C@@H](Cc1ccccc1)C(=O)N[C@H]1CC[C@@H]2CN(S(=O)(=O)c3ccc(C(F)(F)F)cc3)C[C@@H]21	
64.3	79.6				CC(C)N[C@@H](CC(C)(C)C)C(=O)N[C@H]1CC[C@@H]2CN(S(=O)(=O)c3ccc(C(F)(F)F)cc3)C[C@@H]21	IC50 [21]: 2600 nM; Activity (Rattus norvegicus [22]): Toxic; ED50 (Rattus norvegicus [6]): 32 mg/kg; ED50 (Rattus norvegicus [7]): 8 mg/kg; ED50 (Rattus norvegicus [23]): 13 mg/kg; IC50 [8]: 340 nM; Kp at 1 h [24]: 0.9; IC50 [9]: 340 nM; AUC (Rattus norvegicus [25]): 240 ng·h/mL; CL (Rattus norvegicus [26]): 33 mL/min/kg; F (Rattus norvegicus [27]): 46.7%; Vd [18]: 7.1 L/kg; half-life [19]: 2.7 h
